Consider 19 compounds from US7517885B2, “Substituted [4-(4-phenyl-piperazin-1-yl)-cyclohexyl]-urea compounds” (Janssen Pharmaceutica N.V., priority 2005, dated 2009).

Each structure is given as a SMILES string.

The target in assay [1] is T1, α1a-AR (Homo sapiens, UniProt P35348).
T1 construct: expressed in transfected cells; host or cells: COS-7 cells (membranes)
T1 sequence (P35348 1-455 isoform P35348-4): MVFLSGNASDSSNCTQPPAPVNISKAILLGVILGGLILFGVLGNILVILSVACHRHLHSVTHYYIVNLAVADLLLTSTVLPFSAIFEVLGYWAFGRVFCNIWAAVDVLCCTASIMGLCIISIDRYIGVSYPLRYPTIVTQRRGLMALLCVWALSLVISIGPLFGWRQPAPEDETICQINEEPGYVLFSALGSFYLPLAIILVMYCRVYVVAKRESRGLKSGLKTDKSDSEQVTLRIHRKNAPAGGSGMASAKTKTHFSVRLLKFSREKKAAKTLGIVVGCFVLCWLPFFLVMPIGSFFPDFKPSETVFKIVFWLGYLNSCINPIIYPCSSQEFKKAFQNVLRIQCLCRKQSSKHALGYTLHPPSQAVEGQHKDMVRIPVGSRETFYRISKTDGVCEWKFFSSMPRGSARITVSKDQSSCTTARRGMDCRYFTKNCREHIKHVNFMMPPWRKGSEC
Briefly: α1-Adrenergic Receptor Binding Assay (125I-HEAT radio-ligand), α1a subtype. To be noted: membranes of COS-7 cells transfected with α1a subtype; 125I-HEAT 50 pM; rt 1 hr. Here is the method: (§1) α1-Adrenergic Receptor Binding Assay
(§2) Preparation of COS Cell Membranes
(§3) Membranes were prepared from COS-7 cells (African Green monkey kidney SV40-transformed cells) that had been transfected with one of the three α1-AR subtypes (Genbank accession number for the α1a subtype: AF013261; Genbank accession number for the α1b subtype: NM000679; Genbank accession number for the α1d subtype: NM000678) using the following method: COS cells from ten 100 mm tissue culture plates were scraped into a 5 mL volume of TE (a mixture of 50 mM Tris-HCl, 5 mM EDTA, pH 7.4). […] The disrupted cells were centrifuged at 1000×g min at 4° C. Supernatants were centrifuged at 34,500×g for 20 min at 4° C. The membrane pellets were suspended in a 2 mL volume of TNE (a mixture of 50 mM Tris-HCl, 5 mM EDTA and 150 mM NaCl at pH 7.4). An aliquot of the membrane suspension was stored at −70° C. until use. The protein concentration was determined using the BioRad “DC” protein assay kit following membrane solubilization with Triton X-100.
(§4) Radio-Ligand Binding Assay
(§5) Triplicate determinations of radio-ligand binding in the presence of increasing concentrations of testing compound were made. The reagents were added to 96-well polypropylene plate wells. […] The plate was incubated at rt for 1 hr. The contents of the wells were filtered through a glass filter (type C) (GF/C) membrane Unifilter plate (Packard Instruments) using the Packard Filtermate cell harvester. The filter plates were dried in a vacuum oven for 30 min at 40° C. 25 μL Microscint 20 liquid scintillation fluid (Packard Instruments) was added to each well. The radioactive content was analyzed in the TopCount microplate scintillation counter (Packard Instruments).

Assay [2] concerns the target T2, α1b-AR (Homo sapiens, UniProt P35368).
T2 construct: expressed in transfected cells; host or cells: COS-7 cells (membranes)
T2 sequence (P35368 1-520): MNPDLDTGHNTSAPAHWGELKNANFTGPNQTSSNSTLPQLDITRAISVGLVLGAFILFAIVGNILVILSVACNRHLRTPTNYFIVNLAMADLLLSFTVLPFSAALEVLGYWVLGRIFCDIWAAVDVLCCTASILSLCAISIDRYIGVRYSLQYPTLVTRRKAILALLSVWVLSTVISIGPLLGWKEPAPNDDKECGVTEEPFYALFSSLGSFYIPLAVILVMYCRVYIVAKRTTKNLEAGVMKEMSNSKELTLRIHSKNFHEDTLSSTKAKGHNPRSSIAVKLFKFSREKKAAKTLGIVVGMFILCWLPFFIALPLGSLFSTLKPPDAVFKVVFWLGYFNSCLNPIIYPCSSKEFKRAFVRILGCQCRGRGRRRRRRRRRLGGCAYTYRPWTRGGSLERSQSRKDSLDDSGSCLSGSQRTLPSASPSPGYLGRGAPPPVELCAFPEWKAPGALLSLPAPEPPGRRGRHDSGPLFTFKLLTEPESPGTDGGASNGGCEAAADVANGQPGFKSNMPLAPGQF
Kind of assay: α1-Adrenergic Receptor Binding Assay (125I-HEAT radio-ligand), α1b subtype. To be noted: membranes of COS-7 cells transfected with α1b subtype; 125I-HEAT 50 pM; rt 1 hr. The protocol:
as §1, §2, §3, §4, §5

Assay [3] has as its target T3, α1d-AR (Homo sapiens, UniProt P25100).
T3 construct: expressed in transfected cells; host or cells: COS-7 cells (membranes)
T3 sequence (P25100 1-572): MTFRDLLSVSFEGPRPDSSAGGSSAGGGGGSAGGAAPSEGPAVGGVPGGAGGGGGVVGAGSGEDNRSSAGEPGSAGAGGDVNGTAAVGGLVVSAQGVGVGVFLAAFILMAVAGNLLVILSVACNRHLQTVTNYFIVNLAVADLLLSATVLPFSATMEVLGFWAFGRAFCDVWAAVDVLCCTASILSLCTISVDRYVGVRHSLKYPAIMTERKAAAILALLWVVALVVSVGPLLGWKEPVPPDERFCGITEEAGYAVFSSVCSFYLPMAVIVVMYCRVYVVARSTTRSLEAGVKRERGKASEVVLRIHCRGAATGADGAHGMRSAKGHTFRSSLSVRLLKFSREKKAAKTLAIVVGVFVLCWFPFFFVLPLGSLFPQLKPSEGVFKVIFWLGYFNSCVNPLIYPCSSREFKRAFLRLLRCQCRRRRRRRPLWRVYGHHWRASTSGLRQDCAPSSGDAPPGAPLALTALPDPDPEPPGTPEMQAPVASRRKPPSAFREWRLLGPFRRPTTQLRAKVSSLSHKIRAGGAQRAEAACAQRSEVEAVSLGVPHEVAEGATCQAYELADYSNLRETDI
Briefly: α1-Adrenergic Receptor Binding Assay (125I-HEAT radio-ligand), α1d subtype. The settings on record: membranes of COS-7 cells transfected with α1d subtype; 125I-HEAT 50 pM; rt 1 hr. The protocol: as §1, §2, §3, §4, §5

A word on the Ki: it is the equilibrium dissociation constant of an inhibitor or competing ligand from its target. Low values mean tighter binding, high ones weaker binding. For the compound `CC(C)Oc1ccccc1N1CCN([C@H]2CC[C@@H](NC(=O)Nc3cc(F)cc(F)c3)CC2)CC1` [Cpd 28, 1-(3,5-difluoro-phenyl)-r-3-{c-4-[4-(2-isopropoxy-phenyl)-piperazin-1-yl]-cyclohexyl}-urea], the Ki in assay [1] was 108 nM; in assay [2], 1050 nM; in assay [3], 44 nM.
The matching figures for `COc1ccc(NC(=O)N[C@H]2CC[C@@H](N3CCN(c4ccccc4OC(C)C)CC3)CC2)cc1Cl` [Cpd 34, 1-(3-chloro-4-methoxy-phenyl)-r-3-{c-4-[4-(2-isopropoxy-phenyl)-piperazin-1-yl]-cyclohexyl}-urea]: 73 nM, 493 nM and 28 nM.
`COc1ccc(NC(=O)N[C@H]2CC[C@@H](N3CCN(c4ccccc4OC(C)C)CC3)CC2)c(OC)c1` [Cpd 3, 1-(2,4-dimethoxy-phenyl)-r-3-{c-4-[4-(2-isopropoxy-phenyl)-piperazin-1-yl]-cyclohexyl}-urea]: the Ki in assay [1] came to 110 nM; in assay [3], 92 nM.
As for `CC(C)Oc1ccccc1N1CCN([C@H]2CC[C@@H](NC(=O)Nc3c(Cl)cc(Cl)cc3Cl)CC2)CC1` [Cpd 15, r-1-{c-4-[4-(2-isopropoxy-phenyl)-piperazin-1-yl]-cyclohexyl}-3-(2,4,6-trichloro-phenyl)-urea], the Ki in assay [1] came out at 51.2 nM; in assay [2] it was 483 nM; in assay [3], 25.3 nM.
As for `COc1ccc(NC(=O)N[C@H]2CC[C@H](N3CCN(c4ccccc4OC(C)C)CC3)CC2)c(OC)c1` [Cpd 4, 1-(2,4-dimethoxy-phenyl)-r-3-{t-4-[4-(2-isopropoxy-phenyl)-piperazin-1-yl]-cyclohexyl}-urea], the Ki in assay [1] is 74 nM; in assay [3], 20 nM.
As for `CC(C)Oc1ccccc1N1CCN([C@H]2CC[C@H](NC(=O)Nc3ccc(F)c(F)c3)CC2)CC1` [Cpd 8, 1-(3,4-difluoro-phenyl)-r-3-{t-4-[4-(2-isopropoxy-phenyl)-piperazin-1-yl]-cyclohexyl}-urea], the Ki stood at 3 nM in assay [1] and 74 nM in assay [2].
As to `COc1ccccc1NC(=O)N[C@H]1CC[C@H](N2CCN(c3ccccc3OC(C)C)CC2)CC1` [Cpd 2, 1-{t-4-[4-(2-isopropoxy-phenyl)-piperazin-1-yl]-cyclohexyl}-r-3-(2-methoxy-phenyl)-urea], the Ki in assay [1] came out at 38 nM; in assay [2], 107 nM.
`COc1ccc(Cl)cc1NC(=O)N[C@H]1CC[C@@H](N2CCN(c3ccccc3OC(C)C)CC2)CC1` [Cpd 18, 1-(5-chloro-2-methoxy-phenyl)-r-3-{c-4-[4-(2-isopropoxy-phenyl)-piperazin-1-yl]-cyclohexyl}-urea]: the Ki in assay [1] amounted to 101 nM; in assay [3], 64 nM.
On to `CC(C)Oc1ccccc1N1CCN([C@H]2CC[C@@H](NC(=O)Nc3cccc(Cl)c3)CC2)CC1` [Cpd 11, 1-(3-chloro-phenyl)-r-3-{c-4-[4-(2-isopropoxy-phenyl)-piperazin-1-yl]-cyclohexyl}-urea], for which the Ki in assay [1] came to 22.2 nM.
Regarding `COc1ccc(Cl)cc1NC(=O)N[C@H]1CC[C@H](N2CCN(c3ccccc3OC(C)C)CC2)CC1` [Cpd 19, 1-(5-chloro-2-methoxy-phenyl)-r-3-{t-4-[4-(2-isopropoxy-phenyl)-piperazin-1-yl]-cyclohexyl}-urea], the Ki in assay [1] was 34 nM; in assay [3], 2.7 nM.
Turning to `CC(C)Oc1ccccc1N1CCN([C@H]2CC[C@@H](NC(=O)Nc3ccc(F)cc3F)CC2)CC1` [Cpd 22, 1-(2,4-difluoro-phenyl)-r-3-{c-4-[4-(2-isopropoxy-phenyl)-piperazin-1-yl]-cyclohexyl}-urea], the Ki in assay [1] was found to be 14 nM; in assay [2], 475 nM.
For `CC(C)Oc1ccccc1N1CCN([C@H]2CC[C@@H](NC(=O)Nc3ccc(F)c(F)c3)CC2)CC1` [Cpd 7, 1-(3,4-difluoro-phenyl)-r-3-{c-4-[4-(2-isopropoxy-phenyl)-piperazin-1-yl]-cyclohexyl}-urea], in that order: 50.6 nM and 963 nM.
On to `CC(C)Oc1ccccc1N1CCN([C@H]2CC[C@@H](NC(=O)Nc3c(F)cccc3F)CC2)CC1` [Cpd 26, 1-(2,6-difluoro-phenyl)-r-3-{c-4-[4-(2-isopropoxy-phenyl)-piperazin-1-yl]-cyclohexyl}-urea], for which the values for the Ki in assay [1] and in assay [2] were 51.6 nM and 299 nM, respectively.
For `CC(C)Oc1ccccc1N1CCN([C@H]2CC[C@H](NC(=O)Nc3ccc(F)cc3F)CC2)CC1` [Cpd 23, 1-(2,4-difluoro-phenyl)-r-3-{t-4-[4-(2-isopropoxy-phenyl)-piperazin-1-yl]-cyclohexyl}-urea], in that order: 3.1 nM and 76 nM.
`CC(C)Oc1ccccc1N1CCN([C@H]2CC[C@H](NC(=O)Nc3cccc(Cl)c3)CC2)CC1` [Cpd 12, 1-(3-chloro-phenyl)-r-3-{t-4-[4-(2-isopropoxy-phenyl)-piperazin-1-yl]-cyclohexyl}-urea]: in assay [1], the Ki was 5.1 nM.
Consider `CC(C)Oc1ccccc1N1CCN([C@H]2CC[C@H](NC(=O)Nc3c(F)cccc3F)CC2)CC1` [Cpd 27, 1-(2,6-difluoro-phenyl)-r-3-{t-4-[4-(2-isopropoxy-phenyl)-piperazin-1-yl]-cyclohexyl}-urea], for which the results for the Ki in assay [1] and in assay [2] were 5.3 nM and 35.6 nM, respectively.
`CC(C)Oc1ccccc1N1CCN([C@H]2CC[C@H](NC(=O)Nc3c(Cl)cccc3Cl)CC2)CC1` [Cpd 14, 1-(2,6-dichloro-phenyl)-r-3-{t-4-[4-(2-isopropoxy-phenyl)-piperazin-1-yl]-cyclohexyl}-urea]: the Ki in assay [1] amounted to 6.2 nM.
As for `COc1ccccc1NC(=O)N[C@H]1CC[C@@H](N2CCN(c3ccccc3OC(C)C)CC2)CC1` [Cpd 1, 1-{c-4-[4-(2-isopropoxy-phenyl)-piperazin-1-yl]-cyclohexyl}-r-3-(2-methoxy-phenyl)-urea], the Ki in assay [1] stood at 155 nM; in assay [2], 223 nM.
`CC(C)Oc1ccccc1N1CCN([C@H]2CC[C@@H](NC(=O)Nc3c(Cl)cccc3Cl)CC2)CC1` [Cpd 13, 1-(2,6-dichloro-phenyl)-r-3-{c-4-[4-(2-isopropoxy-phenyl)-piperazin-1-yl]-cyclohexyl}-urea] registered a Ki in assay [1] of 33.4 nM.
